The source of these data is US8652799B2, “Method of detecting bioactive molecules in a fluid sample” (priority 2008, dated 2014).

Format in all cases: cell-based
The subject of one experiment is Anabaena sp. In words: Detection of bioactive molecules with Anabaena sp.: inhibition of photosynthetic fluorescence (Luminotox). The note with it: 10 min, neutral pH; for inhibition at 0.001 ppm: 1 ppb. As for the experimental part:
The photosynthetic efficiency is determined with the following formula (F2−F1)/F2. Any molecule affecting directly or indirectly the photosystems modify either F1 or F2 which modification necessarily decreases the photosynthetic efficiency. The inhibition curve of a particular molecule is determined by calculating the activity of the photosystems in the absence of the molecule and in the presence of the molecule and comparing both efficiency as follows as described in Conrad 1993:
Without Inhibitor (wi): efficiency(wi)=(F2(wi)−F1(wi)/F2(wi) With Inhibitor: Relative photosynthetic efficiency(sample)=(F2(sample)−F1(sample))/F2(wi) Percentage Efficiency: efficiency (%)=(efficiency(sample)×100)/efficiency(wi) Percentage Inhibition: Inhibition (%)=100−efficiency (%)
An Anabaena sp. culture was prepared as described in Example 3 above. As indicated in Example 3, the cyanobacteria were reactivated before testing under ambient light and at room temperature during 60 minutes.
The culture was then incubated with bioactive molecules listed in Table 1 below at concentrations of 1 ppm (except for atrazine which was used at a concentration of 1 ppb) for 10 minutes under ambient light followed by 10 minutes under green light and neutral pH. The cellular concentration was 1.0×10^7 cells/mL (100 μL of cyanobacteria within 2 mL of bioactive agent containing aqueous solution (i.e. distilled water)). Testing was performed in triplicates. The fluorescence emitted by each formulation was then measured with Luminotox™ a fluorometer that measures photosynthetic activity.

Experiment [1] relates to Chlorella vulgaris. In words: Stability of Chlorella vulgaris assessed by the CI20 of atrazine. Particulars: 10 min green light, room temperature; + or − two sigma 0.002; algae stored at 4° C. and 20° C.; atrazine tested 0-0.04 mg/L. As for the experimental part: The stability of Chlorella vulgaris was evaluated by determining the Cl20 of atrazine using seven different atrazine concentrations. Cl20 is the concentration of atrazine inhibiting 20% of the efficacy emitted by Chlorella vulgaris as compared to a control Chlorella vulgaris preparation. The Cl20 is statistically determined with the software Icp version 2.0. Stability over time is determined by assessing the number of Cl20 within a range of 2 σ of average.
A Chlorella vulgaris culture was prepared as described in Example 1 above. As indicated above, the algae were reactivated before testing during 90 minutes under ambient light and at room temperature.
The culture was then incubated with atrazine for 10 minutes under green light and at room temperature. The cellular concentration of the algae was 5×10^6 cells/mL of solution (100 μL algae in 2 mL of atrazine-containing aqueous solution (i.e. distilled water)). The concentration of atrazine varied between 0 and 0.04 mg/L. Testing was performed in triplicates. The fluorescence emitted by each formulation was then measured with Luminotox™, a fluorometer that measures photosynthetic activity.

For experiment [2], the system named is Dunaliella tertiolecta. Particulars: 15 min. green light exposition at room temperature; neutral pH (pH 7); 350 000 cells/mL. As for the experimental part: (§1) The detection threshold was obtained with the geometric mean. It was calculated with the following formula: Detection threshold=(CSEO×CMEO)^1/2 where
(§2) CMEO=minimal concentration resulting in a detectable inhibition of the algae efficacy.
(§3) CSEO and CMEO were estimated by a variance analysis ANNOVA™ followed by a Dunnett multiple comparison by comparing the mean efficacy of each tested concentration with the control mean. Calculations were performed with TOXSTAT™ (Version 3.5).
(§4) A Dunaliella tertiolecta culture was prepared as described in Example 2 above. As indicated in Example 2, the algae were reactivated before testing under ambient light and at room temperature during 45 minutes.
The algae formulations were then incubated for 15 minutes with water containing one of the various contaminants listed in Table 2 below at neutral pH under green light and at room temperature. The algae concentration was 350 000 cells/mL (500 μL of algae within 2 mL of aqueous solution (i.e. distilled water) containing substance to detect at indicated concentrations). For each substances, 5 concentrations in triplicates were tested. The TOXSTAT™ software was used to calculate from inhibition values and standard deviations obtained, the maximum concentration without observable effect and the minimal concentration with observable effects (See Table 2 below). The temperature was controlled by a thermostatic bath. Tests were performed in triplicates. The fluorescence emitted by each formulation was then measured with Luminotox™, a fluorometer that measures photosynthetic activity and detection threshold determined as described in the Example above.

In experiment [3] the test system is Chlorella vulgaris. Particulars: 10-15 min. green light exposition at room temperature; neutral pH (pH 7); 5×10^6 cells/mL. The protocol:
The algae concentration was 5×10^6 cells/mL (100 μL of algae within 2 mL of aqueous solution (i.e. distilled water)) containing the substance to detect at indicated concentrations. For each substances, 5 concentrations in triplicates were tested. The TOXSTAT™ software was used to calculate from inhibition values and standard deviations obtained, the maximum concentration without observable effect and the minimal concentration with observable effects. The threshold was calculated with the following formula: (maximum concentration without observable effect x minimal concentration with observable effects)^1/2 (See Table 2 below). The temperature was controlled by a thermostatic bath.
as §1, §2, §3

Experiment [4] deals with Chlorella vulgaris. The experiment in a line: Inhibition of fluorescence emission of Chlorella vulgaris incubated at 35° C. Particulars: 15 minutes. The protocol: The present invention also concerns a method for ammonia nitrogen detection comprising changing algal cell permeability. This compound is detected at 100 ppm at neutral pH but the increment of pH up to 11 decreases the threshold to 1 ppm. Algal permeability can also be modified by increasing the incubation temperature of the assay. For example, fluorescence emission is inhibited in 15 minutes by copper ions, tetracycline and progesterone if Chlorella vulgaris is incubated at 35° C., while at room temperature the detection of these compounds in 15 minutes was possible when these compounds are present at higher concentrations. Chlorella vulgaris is a freshwater alga and is used for freshwater monitoring while Dunaliella tertiolecta is used of for marine water monitoring.

Experiment [5] relates to Dunaliella tertiolecta. In words: Progesterone detection with Dunaliella tertiolecta, green light versus white light then green light. The note with it: 0.25 h, 15 min green light only, 350 000 cells/mL, read-out: Maximum percentage inhibition. As for the experimental part: as §4
The formulation was then incubated with progesterone at concentrations of 0; 0.05; […] or 1 ppm for 15 minutes under green light only or for 15 minutes under ambient light followed by 5 to 35 minutes under green light. The cellular concentration was 350 000 cells/mL (500 μL of algae within 2 mL of progesterone containing aqueous solution (i.e. distilled water)). Testing was performed in triplicates. The fluorescence emitted by each formulation was then measured with Luminotox™, a fluorometer that measures photosynthetic activity.

The test system of experiment [6] is Chlorella vulgaris. In words: Tetracycline detection with Chlorella vulgaris (ambient light, 35° C., low algae concentration). Particulars: within 15 minutes, neutral pH, 2.5×10^6 cells/mL. As for the experimental part: A Chlorella vulgaris culture was prepared as described in Example 1 above. As indicated in Example 1, the algae were reactivated before testing under ambient light and at room temperature during 90 minutes.
The algae formulation was then incubated for 15 or 60 minutes with water containing tetracycline at the indicated concentrations (FIG. 17) under ambient light at a temperature of 35° C. and at a neutral pH. Algae concentrations of 2.5×10^6 cells/mL (50 μL of algae within 2 mL of tetracycline-containing aqueous solutions (i.e. distilled water)) were tested. Testing was performed in triplicates. The fluorescence emitted by each formulation was then measured with Luminotox™, a fluorometer that measures photosynthetic activity.

Read-outs that look alike come from different tables or passages of the source.

Consider `CCNc1nc(Cl)nc(NC(C)C)n1` [atrazine], for which the inhibition – broadly, the drop in the measured response relative to a control, in per cent – at 0.001 ppm in the experiment with Anabaena sp. (10 min ambient light followed by 10 min green light, read-out: Inhibition obtained (followed by 10 min green light)) turned out to be 13%; with Anabaena sp. (10 min ambient light, read-out: Inhibition obtained (10 min ambiant light)), 1%. The “CI20 (concentration inhibiting 20% of the efficacy), average over storage” value in the experiment with Chlorella vulgaris [1] amounted to 0.0037. Further, the figures for the Detection threshold in the experiment on Dunaliella tertiolecta [2] and with Chlorella vulgaris [3] were 0.01 ppm and 0.0007 ppm, respectively.
Turning to `CC(=O)[C@H]1CC[C@H]2[C@@H]3CCC4=CC(=O)CC[C@]4(C)[C@H]3CC[C@]12C` [progesterone], in the experiment on Chlorella vulgaris [4], the Fluorescence emission entry is reported as “inhibited”. Moreover, the inhibition at 1 ppm in the experiment with Dunaliella tertiolecta [5] worked out at 40%.
Turning to `CN(C)[C@@H]1C(O)=C(C(N)=O)C(=O)[C@@]2(O)C(O)=C3C(=O)c4c(O)cccc4[C@@](C)(O)[C@H]3C[C@@H]12` [tetracycline], the inhibition at 1 ppm came to 30% in the experiment with Anabaena sp. (10 min ambient light followed by 10 min green light, read-out: Inhibition obtained at 1 ppm (followed by 10 min green light)) and 0% with Anabaena sp. (10 min ambient light, 1.0×10^7 cells/mL, read-out: Inhibition obtained at 1 ppm (10 min ambiant light)). Moreover, the Concentration detected in the experiment with Chlorella vulgaris [6] stood at 10 µg/mL.
